Reference: PMC6273152, “Design, Synthesis, and Biological Evaluation of Novel PARP-1 Inhibitors Based on a 1H-Thieno[3,4-d] Imidazole-4-Carboxamide Scaffold” (Molecules, 2016)

How the values were obtained:
[1] = test system: CAPAN-1 (BRCA2-deficient) cells; experiment: CellTiter Glo assay for cell growth inhibition, CAPAN-1; settings: Homo sapiens, CAPAN-1, 96 h, read-out: IC50 (BRCA-2, CAPAN-1)
Description: (§1) The growth inhibition potential of test compounds was determined on BRCA1-deficient cell lines HCC1937 and BRCA2-deficient cell lines CAPAN-1. The stock solutions of test compounds were dissolved in DMSO and serially diluted to the required concentrations for 9 doses. […] 60 μL medium was removed from each well and plates were kept at room temperature for 30 min. 60 μL reagent (Celltiter Glo assay kit, Promega, Sunnyvale, CA, USA) per well was added and plates were shaked for 2 min. Cells were incubated avoiding light at room temperature for 30 min and the luminescence value was recorded by multiplate reader. GraphPad Prism 5 was used to plot effect-dose curves and calculate the IC50 values of compounds.

[2] = biological target: T1, PARP-1 enzyme (Homo sapiens, UniProt P09874); experiment: PARP-1 enzymatic inhibition assay (Trevigen 96-well kit, fluorescence); type: biochemical; settings: Table 2 series (16a–n); logit method, six concentrations; read-out: IC50 (PARP-1 enzyme inhibitory activity)
T1 construct: purchased Trevigen 4690-096-K
T1 sequence (P09874 whole entry): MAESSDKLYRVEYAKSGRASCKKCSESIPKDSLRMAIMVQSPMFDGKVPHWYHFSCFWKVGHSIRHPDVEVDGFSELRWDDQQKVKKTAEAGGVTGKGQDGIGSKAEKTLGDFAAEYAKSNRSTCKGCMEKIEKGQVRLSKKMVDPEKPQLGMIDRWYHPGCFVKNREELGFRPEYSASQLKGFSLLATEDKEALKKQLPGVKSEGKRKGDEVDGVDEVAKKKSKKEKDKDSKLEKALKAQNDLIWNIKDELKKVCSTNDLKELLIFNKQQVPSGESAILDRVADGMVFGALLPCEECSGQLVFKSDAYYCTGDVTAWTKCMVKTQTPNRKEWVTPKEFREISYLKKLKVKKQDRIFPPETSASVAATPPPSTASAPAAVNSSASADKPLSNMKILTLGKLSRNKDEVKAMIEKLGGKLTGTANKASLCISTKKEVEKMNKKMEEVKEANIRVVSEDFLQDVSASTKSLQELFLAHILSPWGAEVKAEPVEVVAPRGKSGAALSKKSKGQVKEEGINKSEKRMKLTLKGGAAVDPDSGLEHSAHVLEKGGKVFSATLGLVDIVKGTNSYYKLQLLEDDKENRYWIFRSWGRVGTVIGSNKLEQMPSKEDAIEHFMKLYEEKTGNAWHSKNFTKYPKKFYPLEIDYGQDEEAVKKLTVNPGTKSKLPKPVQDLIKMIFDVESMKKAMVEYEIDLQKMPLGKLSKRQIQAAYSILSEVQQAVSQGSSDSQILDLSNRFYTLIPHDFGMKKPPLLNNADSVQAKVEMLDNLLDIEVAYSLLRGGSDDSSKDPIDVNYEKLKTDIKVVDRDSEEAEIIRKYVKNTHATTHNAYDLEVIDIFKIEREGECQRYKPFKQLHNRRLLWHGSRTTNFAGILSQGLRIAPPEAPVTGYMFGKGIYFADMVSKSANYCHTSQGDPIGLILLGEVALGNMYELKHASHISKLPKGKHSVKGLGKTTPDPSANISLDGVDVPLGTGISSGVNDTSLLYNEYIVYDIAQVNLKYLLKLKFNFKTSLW
Description: All target compounds were evaluated in vitro for their PARP-1 enzyme inhibitory activity.
The procedure was according to the instructions provided by the manufacturer. […] 25 μL of 1 × Buffer was added to each well and 25 μL of appropriate 2 × NAD^+ standards were added to 1B to 1G and 2B to 2G well of 96-well plate for standard curve. 25 μL of 2 μM NAD was added to 1H and 2H for PARP control. 25 μL of 2 μM NAD was added to wells for test compounds, then serially diluted compounds were added, and 1 μL of DMSO was added to the standard well. 25 μL of PARP Mix minus enzyme was added to 1A to 1G and 25 μL of PARP Mix plus enzyme was added to PARP control and compounds well. […] Then 50 μL stop solution was added to each well, and mixed with pipette. […] Then draw the standard curve and calculate the inhibition rate of each test compound.

[3] = test system: normal human lung fibroblast (HLF) cells; experiment: Cytotoxicity assay (MTT) on normal human lung fibroblast cells; settings: 72 h
Description: (§2) The cytotoxic potencies of test compounds were determined on normal human lung fibroblast (HLF) cells. Cells were seeded into 96-well plate at 3000 cells/well. The stock solutions of test compounds were dissolved in DMSO and serially diluted to the required concentrations for 7 doses, and the final testing concentrations for these compounds were 0.3, 1, 3, 10, 30, 100, 300 µM. […] The fraction of surviving cells after compound treatment was determined using the MTT assay.

[4] = test system: HCC1937 (BRCA1-deficient) cells; experiment: CellTiter Glo assay for cell growth inhibition, HCC1937; settings: Homo sapiens, HCC1937, 96 h, read-out: IC50 (BRCA-1, HCC1937)
Description: as §1

[5] = in vitro; settings: human, normal human lung fibroblast (HLF) cells
Description: as §2

Compound	IC50 [1]	IC50 [2]	Inhibition Rate ([3]; 0.3 µM)	Inhibition Rate ([3]; 1 µM)	Inhibition Rate ([3]; 3 µM)	Inhibition Rate ([3]; 10 µM)	Inhibition Rate ([3]; 30 µM)	Inhibition Rate ([3]; 100 µM)	Inhibition Rate ([3]; 300 µM)	IC50 [4]	IC50 at 72 h [5]
NC(=O)c1scc2[nH]c(-c3ccc([N+](=O)[O-])cc3)nc12 [Compound 16i, 2-(4-Nitrophenyl)-1H-thieno[3,4-d]imidazole-4-carboxamide]	26.8 ± 1.55 µM	0.136 µM	−0.05%	1.33%	0.99%	3.37%	2.56%	55.26%	99.63%	32.9 ± 4.21 µM	94.1 ± 2.2 µM
Cc1ccc(-c2nc3c(C(N)=O)scc3[nH]2)cc1 [Compound 16l, 2-(p-Tolyl)-1H-thieno[3,4-d]imidazole-4-carboxamide]	38.8 ± 1.6 µM	0.043 µM	0.42%	3.80%	7.12%	10.16%	13.65%	23.20%	27.94%	49.2 ± 5.43 µM	> 300 µM
